# From patent US11242350B2, “Spirocyclic ROR-gamma modulators” (Escalier Biosciences B.V., priority 2018, dated 2022)
# Target: RORγt (Homo sapiens (Human), UniProt P51449)
# Test: Gal4 ligand binding assay (RORγt Gal fusion luciferase reporter assay in HEK293T cells)
# Assay type: cell-based
# Conditions: RORγt inverse agonists in RORγt Gal fusion assay
# Method in brief: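 Stable HEK293T line expressing the receptor fused to the Gal4 DBD, with a Gal4 UAS-driven luciferase; constitutively active, so agonism and inverse agonism both register. 10-point 1:3 titrations, 60 μM to 3 nM as prepared in media (added as 2×), 0.2% final DMSO; 24 h at 37 °C. Luminescence normalised to vehicle-only wells.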
# Sequence of RORγt (P51449 269-508): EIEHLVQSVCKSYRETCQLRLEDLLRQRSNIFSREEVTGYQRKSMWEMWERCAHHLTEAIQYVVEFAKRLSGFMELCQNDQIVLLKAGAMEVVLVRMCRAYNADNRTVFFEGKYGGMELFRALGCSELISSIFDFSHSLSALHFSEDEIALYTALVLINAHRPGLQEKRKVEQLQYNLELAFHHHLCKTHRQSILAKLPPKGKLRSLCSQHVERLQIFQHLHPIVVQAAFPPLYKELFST
row,IC50 [nM],SMILES
1,50 to 250,"CCc1cc(CN2CC3(C2)CS(=O)(=O)C3)ccc1-c1ccc(C(O)(C(F)(F)F)C(F)(F)F)cc1 [Example 26, 6-((2-ethyl-4′-(1,1,1,3,3,3-hexafluoro-2-hydroxypropan-2-yl)-[1,1′-biphenyl]-4-yl)methyl)-2-thia-6-azaspiro[3.3]heptane 2,2-dioxide]"
2,> 250,"CC(=O)N1CC2(CN(Cc3ccc(-c4ccc(C(O)(C(F)(F)F)C(F)(F)F)cc4)c(C)c3)C2)C1 [Example 49, 1-(6-((4′-(1,1,1,3,3,3-hexafluoro-2-hydroxypropan-2-yl)-2-methyl-[1,1′-biphenyl]-4-yl)methyl)-2,6-diazaspiro[3.3]heptan-2-yl)ethan-1-one]"
3,< 50,"CCc1c(F)c(CN2CC3(C2)CN(S(C)(=O)=O)C3)cc(F)c1-c1ccc(C(O)(C(F)(F)F)C(F)(F)F)cc1 [Example 69, 2-(2′-ethyl-3′,6′-difluoro-4′-((6-(methylsulfonyl)-2,6-diazaspiro[3.3]heptan-2-yl)methyl)-[1,1′-biphenyl]-4-yl)-1,1,1,3,3,3-hexafluoropropan-2-ol]"
4,< 50,"CCc1cc(CN2CC3(C2)CN(S(C)(=O)=O)C3)ccc1-c1ccc(C(O)(C(F)(F)F)C(F)(F)F)cc1C [Example 39, 2-(2′-ethyl-2-methyl-4′-((6-(methylsulfonyl)-2,6-diazaspiro[3.3]heptan-2-yl)methyl)-[1,1′-biphenyl]-4-yl)-1,1,1,3,3,3-hexafluoropropan-2-ol]"
5,50 to 250,"CCc1cc(CN2CC3(C2)CN(S(=O)(=O)CC)C3)ccc1-c1ccc(C(O)(C(F)(F)F)C(F)(F)F)cc1 [Example 22, 2-(2′-ethyl-4′-((6-(ethylsulfonyl)-2,6-diazaspiro[3.3]heptan-2-yl)methyl)-[1,1′-biphenyl]-4-yl)-1,1,1,3,3,3-hexafluoropropan-2-ol]"
